Data on 31 compounds can be found in patent publication US20070219212A1, “Pyranouidole Derivatives and the Use Thereof for the Treatment of Hepatitis C Virus Infection or Disease” (priority 2004, published 2007).

Like-named read-outs stand apart in the source and are kept apart here. Some results are limits rather than exact numbers.

The target in assay [1] is BB7 RNA-dependent RNA polymerase hepatitis C virus protein (Con1 HCV sequence) (Hepatitis C virus genotype 1b, UniProt Q9WMX2). In words: Hepatitis C polymerase (BB7) inhibition. Format: biochemical. From the text:
For purposes of this invention, the term “BB7” denotes an RNA-dependent RNA polymerase hepatitis C virus protein sequence which is derived from HCV replicon. A discussion of BB7 and related technology can be found in Blight, K. et al. (2000) Science 290:1972-1974. BB7 can be licensed from Apath, LLC (893 North Warson Road, Saint Louis Mo. 63141, USA). BB7 is also referred to as Con1 HCV sequence and discussions of Con1 can be found in the following references: Lohmann, V. et al. (1999) Science 285:110-113; Pietschmann, T. et al. (2001) J. Virol. […]:1252-1264; Lohmann, V. et al. (2001) J. Virol. 75:1437-1449.
(§1) The ability of the compounds of the present invention to inhibit Hepatitis C Polymerase was established by the following experimental procedure:
(§2) • 0.5M Na Phosphate buffer. Per liter, weigh 134 gr Na2HPO4.7H2O, add water to 900 ml. Adjust pH to 7.0 with phosphoric acid. Top off with water to 1 L. • Dilute nucleotides 1:1000 to 10 μM (GTP and CTP) or 1:100 to 100 μM (ATP and UTP) into RNase free water. Procedure: • (1) Compounds 10 μl at […] in 15% dimethylsulfoxide (DMSO) When starting from 100 μg/ml compound stock in 1% DMSO: Dispense 5 μl 30% DMSO per well Dispense 5 μl compound (100 μg/ml) per well. When starting from 50 μg/ml compound stock in 15% DMSO: Add 10 μl compound per well.
(§3) Add 20 μl enzyme mix into each well of the assay plate. Incubate compound and enzyme at room temperature for 15 minutes • (3) Template mix—prepare ahead
(§4) Spin down a tube of RNA (5 μg/tube stored in 75% ethanol and 0.3 M sodium acetate) in a microcentrifuge for 20 minutes at 4° C. One tube is enough for 1-1.5 plates. Remove as much ethanol from the tube as possible by inverting the tube. Be gentle, pellet RNA may not adhere to the tube. Vacuum dry the RNA. Resuspend the RNA by adding 1 ml of DEPC water, close the cap of the tube tightly. To dissolve RNA, incubate RNA solution on ice for ˜60 minutes and gently vortex. Spin briefly to ensure all RNA solution is down to the bottom of the tube before opening cap. Gently transfer RNA solution into a 5 ml or larger tube. Add another 3 ml of DEPC water (total 4 ml of volume).
(§5) Add the following volumes of reagents
(§6) Add 20 μl template mix per reaction (i.e. 20 ng of pOF per reaction or ˜3 nM) • (4) Incubate reaction at room temperature (22-25° C.) for 2 hours. • (5) Stop reaction by adding 50 μl of 170 mM EDTA.
(§7) Final concentration of EDTA is 85 mM. • (6) Prewet filters of Millipore multiscreen assay plate by adding 200 μl of 0.5 M sodium phosphate buffer, pH 7.0 into each well. Let stand at room temperature for 2-3 minutes. • (7) Place the multiscreen filter plate onto a Millipore Manifold and turn on vacuum to allow buffer to flow through. Turn off vacuum. Transfer 80 μl of the reaction product into each well of the filter plate. Let stand for 2-3 minutes. Turn on vacuum to filter reaction product. • (8) Turn off vacuum. Add 200 μl of 0.5 M sodium phosphate buffer, pH 7.0 into each well to wash filter. Turn on vacuum.
(§8) Repeat step (8) three more times. • (9) Remove polypropylene bottom. Spot dry filter at the bottom with paper towel. Air dry filter plate on a bench for 1 hour. Add 40 μl Super Mix scintillant. Seal top of the plate with a tape. Place plate into a Packard carrier or micro-beta carrier. • (10) Count plate using a Packard Topcount or micro-beta counter. Count (for example using Program 10) for ^33P in Top count or ^33P program in micro-beta.
(§9) See, Ferrari et al. 1999. J. Virology 73:1649-1654: “Characterization of soluble Hepatitis C virus RNA-dependent RNA polymerase expressed in E. coli and Takamizawa et al. 1991” and J. Virology 65:1105-1113: “Structure and characterization of the Hepatitis C virus genome isolated from human carriers,” both references are hereby incorporated by reference.

For assay [2], the target named is T1, NS5B from the BK strain (genotype 1b) (Hepatitis C virus genotype 1b, UniProt P26663).
T1 construct: NS5B from the BK strain (genotype 1b) is expressed in E coli as a protein in which the 21 C-terminal amino acids are replaced; made in house; host or cells: E. coli
The assay can be described thus: Hepatitis C polymerase (NS5B, BK strain) inhibition, radioactive filter assay. Format: biochemical. The settings on record: NS5B BK strain (genotype 1b).
Source text: as §1
NS5B from the BK strain (genotype 1b) is expressed in E coli as a protein in which the 21 C-terminal amino acids are replaced with a short linker and a hexahistidine tag ([…]). The purified protein is mixed with radioactive nucleotides and allowed to replicate a heteropolymeric RNA substrate, primed by an endogenous short hairpin, resulting in an approximately 760 nt product. The radioactive product is captured on a filter and quantitated after removal of the unincorporated nucleotides.
as §2, §3, §4, §5, §6, §7, §8, §9

[3] abbreviates: BB7 (Con1) NS5B, read-out: BB7 IC50.
The mark [4] stands for this setting: read-out: BB7 IC50, BB7 (Con1) NS5B.

BB7 RNA-dependent RNA polymerase hepatitis C virus protein (Con1 HCV sequence), sequence (Q9WMX2 2420-3010): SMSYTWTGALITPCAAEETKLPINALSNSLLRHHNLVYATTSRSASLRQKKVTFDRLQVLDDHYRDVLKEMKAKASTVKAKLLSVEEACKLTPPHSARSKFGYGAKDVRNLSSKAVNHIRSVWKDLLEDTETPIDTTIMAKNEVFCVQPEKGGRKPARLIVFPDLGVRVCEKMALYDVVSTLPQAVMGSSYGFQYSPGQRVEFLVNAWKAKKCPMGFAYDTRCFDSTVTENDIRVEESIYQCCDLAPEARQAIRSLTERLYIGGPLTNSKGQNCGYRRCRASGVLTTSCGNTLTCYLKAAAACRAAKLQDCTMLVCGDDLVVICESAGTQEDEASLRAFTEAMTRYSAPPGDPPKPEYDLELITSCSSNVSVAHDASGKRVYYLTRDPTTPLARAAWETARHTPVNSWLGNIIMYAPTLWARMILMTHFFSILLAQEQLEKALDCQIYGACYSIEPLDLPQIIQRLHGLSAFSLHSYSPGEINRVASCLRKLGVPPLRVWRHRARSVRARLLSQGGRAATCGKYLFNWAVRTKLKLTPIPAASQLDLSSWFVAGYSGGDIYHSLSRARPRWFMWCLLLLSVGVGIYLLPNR
T1 sequence (P26663 2420-2989): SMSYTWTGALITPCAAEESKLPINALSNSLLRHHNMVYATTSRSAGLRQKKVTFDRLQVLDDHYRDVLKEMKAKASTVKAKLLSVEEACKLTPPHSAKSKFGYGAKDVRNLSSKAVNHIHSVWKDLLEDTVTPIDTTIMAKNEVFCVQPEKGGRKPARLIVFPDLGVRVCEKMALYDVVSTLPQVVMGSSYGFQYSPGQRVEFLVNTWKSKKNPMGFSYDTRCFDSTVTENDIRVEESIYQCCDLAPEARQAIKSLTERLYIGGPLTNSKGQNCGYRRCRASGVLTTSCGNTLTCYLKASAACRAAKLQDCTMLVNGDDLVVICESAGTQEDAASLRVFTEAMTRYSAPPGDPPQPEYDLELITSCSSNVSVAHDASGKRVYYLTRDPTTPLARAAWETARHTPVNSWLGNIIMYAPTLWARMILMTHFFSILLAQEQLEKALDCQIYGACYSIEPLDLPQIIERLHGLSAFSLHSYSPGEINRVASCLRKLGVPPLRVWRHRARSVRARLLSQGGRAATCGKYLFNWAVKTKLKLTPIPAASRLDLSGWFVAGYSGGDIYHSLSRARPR

For `CCCC1(CC(=O)O)OCCc2c1[nH]c1c(C)c(OCc3nnc(C)s3)cc(C#N)c21` (centres unmarked) [Example 133], the IC50 in assay [1] and in assay [2] was under 500 nM each time.

As to `CCCC1(CC(=O)O)OCCc2c1[nH]c1c(C)c(OCc3ccnc(COC)c3)cc(C#N)c21` (centres unmarked) [Example 94], the IC50 in assay [1] (setting [3]) and in assay [2] was under 500 nM in each case.

In the case of `CC#CCOCc1cc(C#N)c2c3c([nH]c2c1C)C(CCC)(CC(=O)O)OCC3` (centres unmarked) [Example 11, (7-But-2-ynyloxymethyl-5-cyano-8-methyl-1-propyl-1,3,4,9-tetrahydro-pyrano[3,4-b]indol-1-yl)-acetic acid], the IC50 in assay [1] and in assay [2] was 500 to 5000 nM throughout.

On to `CCCC1(CC(=O)O)OCCc2c1[nH]c1c(C)c(OCc3ccccn3)cc(C#N)c21` (centres unmarked) [Example 49], for which the IC50 in assay [1] and in assay [2] was under 500 nM in each case.

With `CCCC1(CC(=O)O)OCCc2c1[nH]c1c(C)c(OCCN3CCCC3)cc(C#N)c21` (centres unmarked) [Example 58], the IC50 in assay [1] and in assay [2] was 500 to 5000 nM each time.

In the case of `CCCC1(CC(=O)O)OCCc2c1[nH]c1c(C)c(OCC(C)=NOCC)cc(C#N)c21` (centres unmarked) [Example 105], the 50% inhibitory concentration (IC50) in assay [1] (setting [4]) and in assay [2] was under 500 nM throughout.

For `CCCOCc1cc(C#N)c2c3c([nH]c2c1C)C(CCC)(CC(=O)O)OCC3` (centres unmarked) [Example 4, (5-Cyano-8-methyl-7-propoxymethyl-1-propyl-1,3,4,9-tetrahydro-pyrano[3,4-b]indol-1-yl)-acetic acid], the IC50 (commonly the concentration at which inhibition is half-maximal) in assay [1] is under 500 nM; in assay [2], 500 to 5000 nM.

For the compound `CCCC1(CC(=O)O)OCCc2c1[nH]c1c(C)c(OCC3CCNCC3)cc(C#N)c21` (centres unmarked) [Example 74], the IC50 in assay [1] and in assay [2] was under 500 nM each time.

For the compound `CCCC1(CC(=O)O)OCCc2c1[nH]c1c(C)c(OCc3ccnc(C(N)=O)c3)cc(C#N)c21` (centres unmarked) [Example 65], the IC50 in assay [1] and in assay [2] was under 500 nM throughout.

For the compound `CCCC1(CC(=O)O)OCCc2c1[nH]c1c(C)c(OCC3CN(S(C)(=O)=O)C3)cc(C#N)c21` (centres unmarked) [Example 123], the IC50 in assay [1] and in assay [2] was under 500 nM throughout.

Take `CCCC1(CC(=O)O)OCCc2c1[nH]c1c(C)c(CO)cc(C#N)c21` (centres unmarked) [Example 1, (5-Cyano-7-hydroxymethyl-8-methyl-1-propyl-1,3,4,9-tetrahydro-pyrano[3,4-b]indol-1-yl)-acetic acid]: the IC50 in assay [1] and in assay [2] was under 500 nM each time.

As for `CCCC1(CC(=O)O)OCCc2c1[nH]c1c(C)c(OCc3conc3C)cc(C#N)c21` (centres unmarked) [Example 77], the IC50 in assay [1] and in assay [2] was under 500 nM in each case.

For `CCCC1(CC(=O)O)OCCc2c1[nH]c1c(C)c(OCc3cc(C)[nH]n3)cc(C#N)c21` (centres unmarked) [Example 128], the IC50 in assay [1] and in assay [2] was under 500 nM in each case.

With `CCCC1(CC(=O)O)OCCc2c1[nH]c1c(C)c(OCCOCC3CC3)cc(C#N)c21` (centres unmarked) [Example 120], the IC50 in assay [1] (setting [3]) and in assay [2] was under 500 nM throughout.

As for `CCCC1(CC(=O)O)OCCc2c1[nH]c1c(C)c(COCC3CCCC3)cc(C#N)c21` (centres unmarked) [Example 10, (5-Cyano-7-cyclopentylmethoxymethyl-8-methyl-1-propyl-1,3,4,9-tetrahydro-pyrano[3,4-b]indol-1-yl)-acetic acid], the IC50 in assay [1] and in assay [2] was 500 to 5000 nM throughout.

`CCCC1(CC(=O)O)OCCc2c1[nH]c1c(C)c(COC)cc(C#N)c21` (centres unmarked) [Example 2, (5-Cyano-7-methoxymethyl-8-methyl-1-propyl-1,3,4,9-tetrahydro-pyrano[3,4-b]indol-1-yl)-acetic acid]: the IC50 in assay [1] is under 500 nM; in assay [2] it was 500 to 5000 nM.

In the case of `CCCC1(CC(=O)O)OCCc2c1[nH]c1c(C)c(OCc3cc(C(F)(F)F)n[nH]3)cc(C#N)c21` (centres unmarked) [Example 129], the IC50 in assay [1] (setting [3]) and in assay [2] was under 500 nM throughout.

As to `CCCC1(CC(=O)O)OCCc2c1[nH]c1c(C)c(OCc3cc(CC)n(C)n3)cc(C#N)c21` (centres unmarked) [Example 139], the IC50 in assay [1] and in assay [2] was under 500 nM throughout.

In the case of `CCCC1(CC(=O)O)OCCc2c1[nH]c1c(C)c(OCc3ccncc3)cc(C#N)c21` (centres unmarked) [Example 38], the IC50 in assay [1] (setting [4]) and in assay [2] was under 500 nM in each case.

Take `CCCC1(CC(=O)O)OCCc2c1[nH]c1c(C)c(OCc3cc(C(F)(F)F)n(C)n3)cc(C#N)c21` (centres unmarked) [Example 126]: the half-inhibitory concentration (IC50) in assay [1] and in assay [2] was under 500 nM in each case.

As for `CC[C@H](C)C1(CC(=O)O)OCCc2c1[nH]c1c(C)c(OCCOC(C)C)cc(C#N)c21` (mixture of isomers) [Example 34, (1R*,10S)-[1-sec-Butyl-5-cyano-7-(2-isopropoxy-ethoxy)-8-methyl-1,3,4,9-tetrahydro-pyrano[3,4-b]indol-1-yl]-acetic acid], the IC50 in assay [1] and in assay [2] was under 500 nM in each case.

For the compound `CCCC1(CC(=O)O)OCCc2c1[nH]c1c(C)c(OCc3ccnc(C(C)=NOC)c3)cc(C#N)c21` (centres unmarked) [Example 95], the IC50 in assay [1] and in assay [2] was under 500 nM in each case.

Turning to `CCCC1(CC(=O)O)OCCc2c1[nH]c1c(C)c(OC[C@@H]3CCC(=O)N3)cc(C#N)c21` (some centres unmarked) [Example 97], the IC50 in assay [1] and in assay [2] was under 500 nM throughout.

Regarding `CCCC1(C(=O)O)OCCc2c1[nH]c1c(C)c(OCc3ccncc3)cc(C#N)c21` (centres unmarked) [Example 37], the IC50 in assay [1] and in assay [2] was under 500 nM throughout.

For the compound `CCCC1(CC(=O)O)OCCc2c1[nH]c1c(C)c(OCc3ccc(C)nc3)cc(C#N)c21` (centres unmarked) [Example 70], the IC50 in assay [1] and in assay [2] was under 500 nM each time.

With `CCCC1(CC(=O)O)OCCc2c1[nH]c1c(C)c(OCc3cccnc3C)cc(C#N)c21` (centres unmarked) [Example 62], the IC50 in assay [1] (setting [3]) and in assay [2] was under 500 nM each time.

In the case of `CCC[C@]1(CC(=O)O)OCCc2c1[nH]c1c(C)c(OCc3conc3C)cc(C#N)c21` [Example 125], the IC50 in assay [1] and in assay [2] was under 500 nM throughout.

As for `CCCC1(CC(=O)O)OCCc2c1[nH]c1c(C)c(OCc3ccnc(NC(C)=O)c3)cc(C#N)c21` (centres unmarked) [Example 93], the IC50 in assay [1] and in assay [2] was under 500 nM each time.

“[5-Cyano-8-methyl-1-propyl-7-(tetrahydro-pyran-4-ylmethoxymethyl)-1,3,4,9-tetrahydro-pyrano[3,4-b]indol-1-yl]-acetic acid [Example 12]”: the IC50 in assay [1] (setting [3]) and in assay [2] was 500 to 5000 nM in each case.

Consider `CCCC1(CC(=O)O)OCCc2c1[nH]c1c(C)c(OCc3csc(C(C)C)n3)cc(C#N)c21` (centres unmarked) [Example 72], for which the IC50 in assay [1] (setting [3]) and in assay [2] was under 500 nM throughout.

In the case of `CCCC1(CC(=O)O)OCCc2c1[nH]c1c(C)c(OCc3noc(C(C)(C)C)n3)cc(C#N)c21` (centres unmarked) [Example 88], the IC50 in assay [1] and in assay [2] was under 500 nM in each case.
